Here are results for 11 compounds from patent publication US8765779B2, “Tricyclic derivatives and their pharmaceutical use and compositions” (Cephalon, Inc., priority 2009, dated 2014).

In series [1] the test system is rats. Particulars: rat model of tonic, persistent pain; cited from earlier work.
The test system of series [2] is rats. To be noted: compared to an untreated control group; cited from earlier work.
Another series concerns the target T1, human 5-HT6 receptor (Homo sapiens, UniProt P50406).
T1 construct: host or cells: CHO-K1 cells, stably transfected; membranes prepared in house
Nature of the series: Human 5-HT6 Receptor Binding Assay ([3H]LSD displacement, scintillation beads). Particulars: membranes of CHO-K1 cells with recombinant human 5-HT6, 4 nM [3H]LSD, read-out: h5-HT6 (Ki).

Where two headings read alike, the source gives them in different places.

T1 sequence (P50406 whole entry): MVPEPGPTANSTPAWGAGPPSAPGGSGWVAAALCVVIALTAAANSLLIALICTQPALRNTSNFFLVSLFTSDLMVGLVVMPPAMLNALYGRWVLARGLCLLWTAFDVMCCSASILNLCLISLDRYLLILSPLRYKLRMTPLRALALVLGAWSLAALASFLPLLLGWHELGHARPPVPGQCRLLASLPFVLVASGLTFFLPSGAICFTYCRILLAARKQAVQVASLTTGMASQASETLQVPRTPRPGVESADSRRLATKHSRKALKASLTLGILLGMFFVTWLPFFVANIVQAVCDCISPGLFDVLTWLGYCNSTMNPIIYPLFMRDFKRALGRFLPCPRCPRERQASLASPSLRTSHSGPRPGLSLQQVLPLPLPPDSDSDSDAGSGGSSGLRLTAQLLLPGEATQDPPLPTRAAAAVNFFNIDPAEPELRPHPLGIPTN

For `COc1ccc(NS(=O)(=O)c2sc3ccc(Cl)cc3c2C)cc1N1CCNCC1` [SB-271046], the antinociceptive effect result in the series on rats [1] is listed as “short-lived, antinociceptive effect”.
Take `CN1CCN(c2cccc3c(S(=O)(=O)c4ccccc4)c[nH]c23)CC1` [RO 4368554]: the “non-REM (NREM) sleep” value in the series with rats [2] was “increase in non-REM (non-rapid eye movement or NREM) sleep”.
Consider `CC12CCNCC1Oc1ccc(S(=O)(=O)c3ccc(F)cc3)cc12` (stereo not drawn) [Example 92], for which the melting point (in general, the temperature of the solid-liquid transition) lay within 163 to 165 °C. Also, the Ki (in general, a measure of affinity in units of concentration, obtained from inhibition or displacement) at human 5-HT6 receptor (Table 1, class symbols) is over 1000 nM.
Turning to `CC12CCNCC1Oc1ccc(S(=O)(=O)c3ccccc3F)cc12` (stereo not drawn) [Example 99, 6-[(2-fluorophenyl)sulfonyl]-4a-methyl-1,2,3,4,4a,9a-hexahydro[1]benzofuro[2,3-c]pyridine], the melting point lay in the range of 260 to 262 °C. Further, the Ki at human 5-HT6 receptor (Table 1, class symbols) was under 500 nM. The Ki on human 5-HT6 receptor (specific data) is 243 nM.
Consider `Cc1ccc2nsnc2c1S(=O)(=O)c1ccc2c(c1)OC1CNCCC21` (stereo not drawn) [Example 70], for which the melting point lay in the range of 200 to 201 °C. The Ki at human 5-HT6 receptor (Table 1, class symbols) was over 1000 nM.
Regarding `Cn1ccc2cccc(S(=O)(=O)c3ccc4c5c(oc4c3)CNCC5)c21` [Example 84], the melting point lay in the range of 224 to 225 °C. Besides, on human 5-HT6 receptor (Table 1, class symbols), the Ki is under 500 nM.
Regarding `O=S(=O)(c1ccc2c(c1)OC1CNCCC21)c1cccc2nsnc12` (stereo not drawn) [Example 67], the melting point lay in the range of 195 to 196 °C. Besides, the Ki at human 5-HT6 receptor (Table 1, class symbols) is under 500 nM.
Regarding `CC(=O)NCC1(C)NCCc2c1oc1cc(S(=O)(=O)c3cccc(F)c3)ccc21` (stereo not drawn) [Example 492, N-({7-[(3-fluorophenyl)sulfonyl]-1-methyl-1,2,3,4-tetrahydro[1]benzofuro[2,3-c]pyridin-1-yl}methyl)acetamide], the melting point was 140 to 155 °C (dec.). Besides, the Ki on human 5-HT6 receptor (Table 1, class symbols) is under 500 nM.
In turn, `COc1cc2c(cc1S(=O)(=O)c1cccc(F)c1)C1CCNCC1O2` (stereo not drawn) [Example 89] displayed a melting point of 197 to 204 °C. For the same compound, on human 5-HT6 receptor (Table 1, class symbols), the Ki was under 500 nM.
The compound `CC(C)Oc1cccc(S(=O)(=O)c2ccc3c(c2)C2(C)CCNCC2O3)c1` (stereo not drawn) [Example 98] displayed a melting point of 162 to 164 °C. Besides, the Ki on human 5-HT6 receptor (Table 1, class symbols) was under 500 nM.
For `CC12CCNCC1Oc1ccc(S(=O)(=O)c3cccc(Cl)c3Cl)cc12` (stereo not drawn) [Example 101] the same measures were 210 to 212 °C and under 500 nM.
